Where two headings read alike, the source gives them in different places.
How the values were obtained:
[1] = system: A549; test: MTT assay, antiproliferative activity on lung cancer A549; format: cell-based, human; details: for cytotoxicity level in words, A549: text grading
[2] = system: Caco-2; test: MTT assay, antiproliferative activity on colorectal cancer Caco-2; format: cell-based, human; details: for SI (CaCo-2): selectivity index WI38 vs CaCo-2; for cytotoxicity level in words, Caco-2: text grading
[3] = system: WI38; test: MTT assay, cytotoxicity on normal lung fibroblast WI38; format: cell-based, human; details: read-out: IC50 WI38
[4] = system: A549; details: read-out: IC50 A549; reference drug; cited from earlier work
[5] = Homo sapiens, A549, read-out: IC50 A549
[6] = Homo sapiens, Caco-2, read-out: IC50 CaCo-2

Row | Compound | IC50 [1, 5] [µM] | IC50 [2, 6] [µM] | IC50 ([1]; read-out: IC50 A549, MTT, lung cancer A549) [µM] | IC50 ([2]; read-out: IC50 CaCo-2, MTT, colorectal cancer Caco-2) [µM] | SI (CaCo-2) [2] | IC50 ([3]; Homo sapiens, WI-38, 72 h) [µM] | cytotoxicity level in words, A549 ([1]; MTT) | cytotoxicity level in words, Caco-2 ([2]; MTT) | IC50 ([3]; MTT, normal lung fibroblast WI38, 72 h) [µM] | IC50 [4] [µM]
1 | O=C(O)Cn1cc(COc2ccccc2-c2nc(-c3ccccc3)no2)nn1 [Compound 7a, 2-(4-((2-(3-Phenyl-1,2,4-oxadiazol-5-yl)phenoxy)methyl)-1H-1,2,3-triazol-1-yl)acetic acid] | 210 | 98.1 | – | – | 0.23 | 22.4 | weak to inactive | weak to inactive | – | –
2 | NC(=O)Cn1cc(COc2ccccc2-c2nc(Cc3ccccc3)no2)nn1 [Compound 6b, 2-(4-((2-(3-Benzyl-1,2,4-oxadiazol-5-yl)phenoxy)methyl)-1H-1,2,3-triazol-1-yl)acetamide] | 3.56 | 11.5 | – | – | 1.38 | 15.9 | – | – | – | –
3 | COc1cccc2c1C(=O)c1c(O)c3c(c(O)c1C2=O)C[C@@](O)(C(=O)CO)C[C@@H]3O[C@H]1C[C@H](N)[C@H](O)[C@H](C)O1 [Doxorubicin, reference compound] | 1 | 1.3 | – | – | 3.32 | 4.32 | – | – | – | –
4 | CCOC(=O)Cn1cc(COc2ccccc2-c2nc(Cc3ccccc3)no2)nn1 [Compound 5b, Ethyl 2-(4-((2-(3-benzyl-1,2,4-oxadiazol-5-yl)phenoxy)methyl)-1H-1,2,3-triazol-1-yl)acetate] | 10.5 | 47.7 | – | – | 0.41 | 19.5 | – | moderate | – | –
5 | COc1cc([C@@H]2c3cc4c(cc3[C@@H](O[C@@H]3O[C@@H]5CO[C@@H](C)O[C@H]5[C@H](O)[C@H]3O)[C@H]3COC(=O)[C@H]23)OCO4)cc(OC)c1O [etoposide] | – | – | – | – | – | – | – | – | – | 3.08
6 | CCOC(=O)Cn1cc(COc2ccccc2-c2nc(-c3ccccc3)no2)nn1 [Compound 5a, Ethyl 2-(4-((2-(3-phenyl-1,2,4-oxadiazol-5-yl)phenoxy)methyl)-1H-1,2,3-triazol-1-yl)acetate] | 7.4 | 26.3 | – | – | 0.54 | 14.3 | – | moderate | – | –
7 | NC(=O)Cn1cc(COc2ccccc2-c2nc(-c3ccccc3)no2)nn1 [Compound 6a, 2-(4-((2-(3-Phenyl-1,2,4-oxadiazol-5-yl)phenoxy)methyl)-1H-1,2,3-triazol-1-yl)acetamide] | 12.7 | 14.1 | – | – | 2.11 | 29.8 | – | – | – | –
8 | O=C(O)Cn1cc(COc2ccccc2-c2nc(Cc3ccccc3)no2)nn1 [Compound 7b, 2-(4-((2-(3-Benzyl-1,2,4-oxadiazol-5-yl)phenoxy)methyl)-1H-1,2,3-triazol-1-yl)acetic acid] | 86 | 173 | – | – | 0.48 | 83.8 | weak to inactive | weak to inactive | – | –

Continued, in another order:

Row | IC50 [1, 5] [µM] | IC50 [2, 6] [µM] | IC50 ([1]; read-out: IC50 A549, MTT, lung cancer A549) [µM] | IC50 ([2]; read-out: IC50 CaCo-2, MTT, colorectal cancer Caco-2) [µM] | Compound | SI (CaCo-2) [2] | IC50 ([3]; Homo sapiens, WI-38, 72 h) [µM] | cytotoxicity level in words, A549 ([1]; MTT) | cytotoxicity level in words, Caco-2 ([2]; MTT) | IC50 ([3]; MTT, normal lung fibroblast WI38, 72 h) [µM] | IC50 [4] [µM]
9 | 10.3 | 16.4 | – | – | O=C(Cn1cc(COc2ccccc2-c2nc(Cc3ccccc3)no2)nn1)NNC(=S)Nc1ccccc1 [Compound 11b, 2-(2-(4-((2-(3-Benzyl-1,2,4-oxadiazol-5-yl)phenoxy)methyl)-1H-1,2,3-triazol-1-yl)acetyl)-N-phenylhydrazine-1-carbothioamide] | 2.08 | 34 | – | – | – | –
10 | 37.3 | 44.5 | – | – | Cc1c(O)ncc(COP(=O)([O-])O)c1C=NNC(=O)Cn1cc(COc2ccccc2-c2nc(Cc3ccccc3)no2)nn1.[Na+] [Compound 10b, Sodium-(4-((2-(2-(4-((2-(3-benzyl-1,2,4-oxadiazol-5-yl)phenoxy)methyl)-1H-1,2,3-triazol-1-yl)acetyl)hydrazineylidene)methyl)-6-hydroxy-5-methylpyridin-3-yl)methyl hydrogen phosphate] | 0.74 | 32.8 | moderate | moderate | – | –
11 | 13.1 | 12.9 | – | – | NNC(=O)Cn1cc(COc2ccccc2-c2nc(-c3ccccc3)no2)nn1 [Compound 8a, 2-(4-((2-(3-Phenyl-1,2,4-oxadiazol-5-yl)phenoxy)methyl)-1H-1,2,3-triazol-1-yl)acetohydrazide] | 2.38 | 30.6 | – | – | – | –
12 | – | – | 29.5 | 26.7 | Cc1c(O)ncc(COP(=O)([O-])O)c1C=NNC(=O)Cn1cc(COc2ccccc2-c2nc(-c3ccccc3)no2)nn1.[Na+] [Compound 10a, Sodium-(6-hydroxy-5-methyl-4-((2-(2-(4-((2-(3-phenyl-1,2,4-oxadiazol-5-yl)phenoxy)methyl)-1H-1,2,3-triazol-1-yl)acetyl)hydrazonol)methyl)pyridin-3-yl)methyl hydrogen phosphate] | 0.34 | – | moderate | moderate | 9.02 | –
13 | 6.52 | 3.37 | – | – | O=C(Cn1cc(COc2ccccc2-c2nc(-c3ccccc3)no2)nn1)NN=Cc1ccccc1O [Compound 9a, N′-(2-Hydroxybenzylidene)-2-(4-((2-(3-phenyl-1,2,4-oxadiazol-5-yl)phenoxy)methyl)-1H-1,2,3-triazol-1-yl)acetohydrazide] | 1.81 | 6.1 | – | – | – | –
14 | 4.27 | 4.44 | – | – | NNC(=O)Cn1cc(COc2ccccc2-c2nc(Cc3ccccc3)no2)nn1 [Compound 8b, 2-(4-((2-(3-Benzyl-1,2,4-oxadiazol-5-yl)phenoxy)methyl)-1H-1,2,3-triazol-1-yl)acetohydrazide] | 0.81 | 3.6 | – | – | – | –
15 | 12.4 | 32.2 | – | – | O=C(Cn1cc(COc2ccccc2-c2nc(-c3ccccc3)no2)nn1)NNC(=S)Nc1ccccc1 [Compound 11a, N-Phenyl-2-(2-(4-((2-(3-phenyl-1,2,4-oxadiazol-5-yl)phenoxy)methyl)-1H-1,2,3-triazol-1-yl)acetyl)hydrazine-1-carbothioamide] | 0.67 | 21.6 | – | moderate | – | –
16 | 2.51 | 2.89 | – | – | O=C(Cn1cc(COc2ccccc2-c2nc(Cc3ccccc3)no2)nn1)NN=Cc1ccccc1O [Compound 9b, 2-(4-((2-(3-Benzyl-1,2,4-oxadiazol-5-yl)phenoxy)methyl)-1H-1,2,3-triazol-1-yl)-N'-(2-hydroxybenzylidene)acetohydrazide] | 0.73 | 2.12 | – | – | – | –

Reference: publication PMC11110756 (RSC Advances, 2024)
